Among the data in PubChem BioAssay (NCI) are GI50 and TGI values, retold here.

Where “and” joins values, the source holds several entries; their conditions need not be identical. Identical values can stand only once.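 Growth conditions: 96-well plates. Treatment: test compound, 48 hours, 5 concentrations. Analysis: linear interpolation between bracketing concentrations; unreached endpoints set to highest concentration. At the GI50, growth is halved. The concentration for full growth arrest is given as TGI.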

Test systems include SF-539 CNS; UO-31 renal; HOP-62 NSCLC; UACC-62 melanoma; HOP-92 NSCLC; EKVX NSCLC; SW-620 colon; SF-268 CNS; LOX IMVI melanoma; NCI-H460 lung.
What all share (test): growth of human tumour cells (NCI), 48 h

For the compound `COc1ccc2cc(-c3c(-c4ccncc4)nc(-c4ccc(S(C)=O)cc4C)n3C)ccc2c1` (configuration not stated), the GI50 in the experiment with SF-539 CNS is greater than 25000 nM; with UO-31 renal, 6370 nM; in the experiment on HOP-62 NSCLC, 24.7 µM; in the experiment on UACC-62 melanoma, 13800 nM; with HOP-92 NSCLC, 4660 nM; in the experiment on EKVX NSCLC, 8340 nM. Also, the GI50 is greater than 25000 nM in the experiment with SW-620 colon, greater than 25000 nM with SF-268 CNS, 16400 nM with LOX IMVI melanoma and 24600 nM with NCI-H460 lung. The TGI with SF-539 CNS, in the experiment on UO-31 renal, in the experiment with HOP-62 NSCLC, in the experiment with UACC-62 melanoma, in the experiment on HOP-92 NSCLC and in the experiment on EKVX NSCLC was greater than 25 µM each time. Further, the TGI in the experiment on SW-620 colon, with SF-268 CNS, with LOX IMVI melanoma and with NCI-H460 lung was greater than 25 µM in each case.

As to `Cc1ccc(/C=C2\CNC/C(=C\c3ccc(C)cc3)C2=O)cc1`, the GI50 with SF-539 CNS is 1530 nM; in the experiment on HOP-62 NSCLC, 3.26 µM; with HOP-92 NSCLC it was 2210 nM; with EKVX NSCLC, 2850 nM; in the experiment with SW-620 colon, 473 nM; in the experiment on LOX IMVI melanoma, 403 nM. For the same compound, the GI50 with NCI-H460 lung was 1210 nM. For the same compound, the TGI in the experiment on SF-539 CNS is 5.04 µM and 19.5 µM; in the experiment with UO-31 renal it was 3.14 µM and 3.25 µM; with HOP-62 NSCLC it was 9.75 µM and 7.33 µM; in the experiment with UACC-62 melanoma, 4.36 µM; in the experiment with HOP-92 NSCLC, 5.49 µM and 14.5 µM; in the experiment with EKVX NSCLC, 8.3 µM and 20.8 µM. Further, the TGI is 2.11 µM and 8.36 µM in the experiment on SW-620 colon; 10.3 µM in the experiment with SF-268 CNS; 1.49 µM and 2.11 µM in the experiment with LOX IMVI melanoma; 2.62 µM and 9.51 µM in the experiment with NCI-H460 lung.

Regarding `Cc1ccc(-n2c3c(c4c(CN5CCOCC5)c(O)ccc42)CCc2ccccc2C3=O)cc1`, the GI50 in the experiment on SF-539 CNS is greater than 100000 nM; with UO-31 renal, greater than 100000 nM; in the experiment with HOP-62 NSCLC, greater than 100 µM; in the experiment on UACC-62 melanoma it was greater than 100000 nM; in the experiment on HOP-92 NSCLC, 68200 nM; with EKVX NSCLC it was greater than 100000 nM. Besides, the GI50 in the experiment on SW-620 colon is greater than 100000 nM; in the experiment with SF-268 CNS, 73700 nM; in the experiment with LOX IMVI melanoma, greater than 100000 nM; with NCI-H460 lung, 65800 nM. The TGI in the experiment on SF-539 CNS, in the experiment on UO-31 renal, in the experiment on HOP-62 NSCLC, with UACC-62 melanoma, in the experiment on HOP-92 NSCLC and in the experiment with EKVX NSCLC was greater than 100 µM each time. For the same compound, the TGI in the experiment on SW-620 colon, with SF-268 CNS, in the experiment on LOX IMVI melanoma and in the experiment on NCI-H460 lung was greater than 100 µM each time.

As for `O=C(O)C1C2C=CC(O2)C1C(=O)Nc1ncccn1` (configuration not stated), the TGI in the experiment on SF-539 CNS, in the experiment on UO-31 renal, in the experiment with HOP-62 NSCLC, in the experiment on UACC-62 melanoma, with HOP-92 NSCLC and in the experiment on EKVX NSCLC was greater than 100 µM each time. The TGI in the experiment with SW-620 colon, in the experiment on SF-268 CNS, with LOX IMVI melanoma and in the experiment with NCI-H460 lung was greater than 100 µM in each case.

As for `CC(C)(C)c1cc(CCC(=O)Nc2ccc(Cl)cc2Cl)nc(N)n1`, the TGI in the experiment on SF-539 CNS, in the experiment on UO-31 renal, in the experiment with HOP-62 NSCLC, with UACC-62 melanoma, in the experiment with HOP-92 NSCLC and in the experiment on EKVX NSCLC was greater than 100 µM each time. The TGI in the experiment with SW-620 colon, in the experiment on SF-268 CNS, in the experiment with LOX IMVI melanoma and in the experiment with NCI-H460 lung was greater than 100 µM throughout.

`Fc1c[c-]c(-c2ccccn2)c(F)c1.[CH3-].[Pt+2].c1ccc(P(C[PH+](c2ccccc2)c2ccccc2)c2ccccc2)cc1`: the GI50 is 838 nM in the experiment on SF-539 CNS; 731 nM in the experiment on UO-31 renal; 0.932 µM in the experiment with HOP-62 NSCLC; 545 nM with UACC-62 melanoma; 512 nM in the experiment on HOP-92 NSCLC; 495 nM in the experiment on EKVX NSCLC. For the same compound, the GI50 in the experiment on SW-620 colon was 520 nM; in the experiment on SF-268 CNS, 860 nM; in the experiment with LOX IMVI melanoma, 539 nM; in the experiment on NCI-H460 lung, 591 nM. The TGI in the experiment with SF-539 CNS is 1.62 µM; in the experiment with UO-31 renal it was 1.41 µM; in the experiment on HOP-62 NSCLC, 3.71 µM; in the experiment on UACC-62 melanoma, 1.89 µM; in the experiment on HOP-92 NSCLC, 1.34 µM; in the experiment with EKVX NSCLC it was 1.96 µM. Besides, the TGI in the experiment with SW-620 colon came out at 1.49 µM; in the experiment with SF-268 CNS, 6.88 µM; in the experiment with LOX IMVI melanoma, 1.28 µM; with NCI-H460 lung, 1.54 µM.

With `C[N+](C)=c1nc(N2CCOCC2)ss1`, the TGI in the experiment on SF-539 CNS, in the experiment on UO-31 renal, in the experiment on HOP-62 NSCLC, in the experiment on UACC-62 melanoma, with HOP-92 NSCLC and in the experiment with EKVX NSCLC was greater than 100 µM in each case. Also, the TGI in the experiment on SW-620 colon, in the experiment with SF-268 CNS, with LOX IMVI melanoma and in the experiment on NCI-H460 lung was greater than 100 µM throughout.

For the compound `COc1ccc(CC2=NCCc3cc(OC)c(OC)cc32)cc1Br`, the TGI with SF-539 CNS was greater than 100 µM; with UO-31 renal, greater than 100 µM; in the experiment on HOP-62 NSCLC, greater than 100 µM; with UACC-62 melanoma, 36.6 µM; with HOP-92 NSCLC, 33.7 µM; in the experiment with EKVX NSCLC, greater than 100 µM. The TGI was greater than 100 µM in the experiment on SW-620 colon, greater than 100 µM with SF-268 CNS, 30.3 µM with LOX IMVI melanoma and greater than 100 µM in the experiment on NCI-H460 lung.

In the case of `c1ccc(CC(NCCNC(Cc2ccccc2)c2ccccc2)c2ccccc2)cc1` (configuration not stated), the GI50 was 451 nM with SF-539 CNS; 415 nM in the experiment with UO-31 renal; 1.17 µM in the experiment with HOP-62 NSCLC; 491 nM with UACC-62 melanoma; 369 nM in the experiment on HOP-92 NSCLC; 482 nM with EKVX NSCLC. Moreover, the GI50 was 401 nM in the experiment on SW-620 colon, 801 nM with SF-268 CNS, 185 nM with LOX IMVI melanoma and 294 nM in the experiment with NCI-H460 lung. Moreover, the TGI with SF-539 CNS amounted to 1.64 µM; in the experiment on UO-31 renal it was 1.96 µM; in the experiment on HOP-62 NSCLC it was 2.86 µM; with UACC-62 melanoma, 1.86 µM; with HOP-92 NSCLC, 1.48 µM; in the experiment with EKVX NSCLC, 3.17 µM. In addition, the TGI in the experiment on SW-620 colon stood at 1.38 µM; in the experiment with SF-268 CNS, 7.12 µM; in the experiment on LOX IMVI melanoma it was 0.375 µM; in the experiment with NCI-H460 lung, 0.719 µM.

`NC(=O)C(=O)n1ncc(Cl)c(Cl)c1=O`: the TGI in the experiment with SF-539 CNS is 86.1 µM; in the experiment with UO-31 renal it was 48.1 µM; in the experiment with HOP-62 NSCLC, greater than 100 µM; in the experiment on UACC-62 melanoma it was 54.4 µM; with HOP-92 NSCLC, greater than 57.8 µM; with EKVX NSCLC it was 67.5 µM. Further, the TGI with SW-620 colon is 35.3 µM; in the experiment on SF-268 CNS, greater than 92.9 µM; in the experiment with LOX IMVI melanoma, 56.6 µM; in the experiment with NCI-H460 lung it was greater than 100 µM.
